Calls of active or inactive are those of the source. The rule behind the calls is not given here.
Legend:
[1] = target: T1, Muscarinic acetylcholine receptor M4 (Rattus norvegicus) (UniProt P08485); test: Agonist activity at muscarinic M4 receptor in Sprague-Dawley rat hippocampal CA1 pyramidal neuron assessed as inhibitory postsynaptic current amplitude at 5 uM by whole-cell electrophysiology relative to control; assay type: functional, tissue-based; design: scale not given: the % may be the effect or the level left; conditions: Hippocampus
T1 sequence (whole entry): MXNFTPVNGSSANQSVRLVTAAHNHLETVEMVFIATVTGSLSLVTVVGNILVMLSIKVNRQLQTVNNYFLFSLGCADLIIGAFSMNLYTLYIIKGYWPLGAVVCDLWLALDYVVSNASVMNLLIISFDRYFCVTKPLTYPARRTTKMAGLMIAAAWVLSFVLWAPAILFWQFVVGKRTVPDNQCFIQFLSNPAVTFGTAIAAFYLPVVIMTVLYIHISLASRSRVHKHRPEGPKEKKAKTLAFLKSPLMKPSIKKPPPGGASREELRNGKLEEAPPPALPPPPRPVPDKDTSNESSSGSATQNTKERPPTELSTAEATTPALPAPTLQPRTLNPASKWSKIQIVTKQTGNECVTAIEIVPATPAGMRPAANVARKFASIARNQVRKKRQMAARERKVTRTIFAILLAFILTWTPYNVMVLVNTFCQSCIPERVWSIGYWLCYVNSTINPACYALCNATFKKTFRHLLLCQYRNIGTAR

[2] = target: T1, Muscarinic acetylcholine receptor M4 (Rattus norvegicus); test: Allosteric activation of rat recombinant muscarinic M4 receptor expressed in CHO cells assessed as fold decrease in acetylcholine Ki for displacement of [3H]NMS from active binding site after 2 hrs by microplate scintillation counting; assay type: cell-based
[3] = target: T1, Muscarinic acetylcholine receptor M4 (Rattus norvegicus); test: Agonist activity at muscarinic M4 receptor in Sprague-Dawley rat hippocampal CA1 pyramidal neuron assessed as reversible inhibition of excitatory postsynaptic current by whole-cell electrophysiology; assay type: functional, tissue-based; conditions: Hippocampus
CHO = test: Agonist activity at P2Y1 receptor in CHO cells assessed as induction of calcium mobilization at 10 uM after 1 hr by fluorescence assay; assay type: functional, cell-based; conditions: Cricetulus griseus
[4] = target: T2, Muscarinic acetylcholine receptor M1 (Rattus norvegicus) (UniProt P08482); test: Allosteric activation of rat recombinant muscarinic M1 receptor expressed in CHO cells assessed as potentiation of acetylcholine-induced calcium mobilization at 10 uM after 1 hr by fluorescence assay; assay type: functional, cell-based
T2 sequence (whole entry): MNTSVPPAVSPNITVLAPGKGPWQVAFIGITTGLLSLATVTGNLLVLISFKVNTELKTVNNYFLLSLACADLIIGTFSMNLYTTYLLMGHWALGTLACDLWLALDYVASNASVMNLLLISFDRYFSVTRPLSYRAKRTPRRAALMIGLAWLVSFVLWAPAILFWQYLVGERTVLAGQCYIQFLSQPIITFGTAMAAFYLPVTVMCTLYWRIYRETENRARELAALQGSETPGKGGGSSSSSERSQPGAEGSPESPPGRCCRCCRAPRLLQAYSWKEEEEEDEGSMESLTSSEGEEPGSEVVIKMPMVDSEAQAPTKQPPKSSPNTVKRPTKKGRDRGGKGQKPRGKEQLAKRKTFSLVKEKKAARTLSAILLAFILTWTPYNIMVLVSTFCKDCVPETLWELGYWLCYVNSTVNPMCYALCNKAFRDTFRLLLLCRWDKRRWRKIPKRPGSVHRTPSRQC

[5] = target: T3, Muscarinic acetylcholine receptor M4 (Mus musculus) (UniProt P32211); test: Agonist activity at muscarinic M4 receptor in wild type mouse hippocampal CA1 pyramidal neuron assessed as reduction of inhibitory postsynaptic current amplitude at 2 uM by whole-cell electrophysiology relative to control; assay type: functional, tissue-based; conditions: Hippocampus
T3 sequence (whole entry): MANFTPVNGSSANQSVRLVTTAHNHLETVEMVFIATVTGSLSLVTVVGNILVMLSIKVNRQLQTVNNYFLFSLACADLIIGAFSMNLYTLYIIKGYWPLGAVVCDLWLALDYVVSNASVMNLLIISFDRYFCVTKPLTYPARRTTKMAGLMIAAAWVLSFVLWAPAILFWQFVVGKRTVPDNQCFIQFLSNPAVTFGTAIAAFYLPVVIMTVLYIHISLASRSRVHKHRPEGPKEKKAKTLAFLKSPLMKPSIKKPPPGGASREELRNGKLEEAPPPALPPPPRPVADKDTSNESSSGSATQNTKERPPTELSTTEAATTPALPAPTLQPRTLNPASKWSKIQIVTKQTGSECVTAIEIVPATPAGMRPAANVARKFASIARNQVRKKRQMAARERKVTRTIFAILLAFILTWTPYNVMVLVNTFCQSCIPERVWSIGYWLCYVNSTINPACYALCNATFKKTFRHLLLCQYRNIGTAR

[6] = Agonist activity at muscarinic receptor in M4 receptor knock out mouse hippocampal CA1 pyramidal neuron assessed as reduction of excitatory postsynaptic current amplitude at 5 uM by whole-cell electrophysiology in presence of carbachol relative to control; assay type: functional; conditions: Hippocampus
[7] = target: T4, Muscarinic acetylcholine receptor M5 (Rattus norvegicus) (UniProt P08911); test: Allosteric activation of rat recombinant muscarinic M5 receptor expressed in CHO cells assessed as potentiation of acetylcholine-induced calcium mobilization at 10 uM after 1 hr by fluorescence assay; assay type: functional, cell-based
T4 sequence (whole entry): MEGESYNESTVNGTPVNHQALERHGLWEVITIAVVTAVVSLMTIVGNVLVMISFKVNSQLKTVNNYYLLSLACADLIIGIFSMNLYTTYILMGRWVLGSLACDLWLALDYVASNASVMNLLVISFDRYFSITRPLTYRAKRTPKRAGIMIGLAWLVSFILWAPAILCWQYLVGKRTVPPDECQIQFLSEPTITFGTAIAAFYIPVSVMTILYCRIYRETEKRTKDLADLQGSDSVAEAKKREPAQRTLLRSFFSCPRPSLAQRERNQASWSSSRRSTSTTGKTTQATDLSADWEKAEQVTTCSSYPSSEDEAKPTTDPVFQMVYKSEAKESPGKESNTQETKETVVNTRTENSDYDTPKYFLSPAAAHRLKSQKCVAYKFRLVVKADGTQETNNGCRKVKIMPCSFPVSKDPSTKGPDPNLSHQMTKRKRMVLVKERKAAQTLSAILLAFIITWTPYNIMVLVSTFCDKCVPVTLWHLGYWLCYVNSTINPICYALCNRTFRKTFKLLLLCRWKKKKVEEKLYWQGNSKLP

With Cc1cc(C)c2c(N)c(C(=O)NCc3ccc(Cl)cc3)sc2n1 the Activity [1] was 98.5%, the Activity [2] was “Dose-dependent effect” and the Activity [3] was “Dose-dependent effect”. The Activity (CHO) was “inactive”, the Activity [4] was “inactive” and the inhibition [5] was 56%. For the same compound, the inhibition at 5 µM [6] was 77.5% and the Activity [7] was “inactive”.
